Consider 17 compounds from PubChem BioAssay AID328 (DTP/NCI, 2004).

Where “and” joins values, the source holds several entries; their conditions need not be identical. Equal values may be shown once. Toxic doses and inconclusive results are not listed.

This test has as its system BDF1 mice, P388 leukemia ip, median survival T/C. As to the kind of experiment: NCI In Vivo Anticancer Drug Screen. Data for tumor model P388 Leukemia (intraperitoneal) in B6D2F1 (BDF1) mice. To be noted: endpoint: median survival time, higher = longer survival. A digest of the protocol:
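Each value expresses how treatment altered survival: treated-mouse outcome over vehicle-mouse outcome, both groups bearing the transplanted tumour.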

Setting [1] is: dose: 100.0 mg/kg/injection, schedule: Q04DX003 (ip), vehicle: saline with Tween-80.
[2] abbreviates: dose: 200.0 mg/kg/injection, schedule: Q04DX003 (ip), vehicle: saline with Tween-80.
Setting [3] is: dose: 400.0 mg/kg/injection, schedule: Q04DX003 (ip), vehicle: saline with Tween-80.
The mark [4] stands for this setting: dose: 25.0 mg/kg/injection, schedule: Q01DX009 (ip), vehicle: Klucel (hydroxypropylcellulose) (HPC).
Where [5] appears, read: dose: 25.0 mg/kg/injection, schedule: Q04DX003 (ip), vehicle: Klucel (hydroxypropylcellulose) (HPC).
Setting [6] is: dose: 50.0 mg/kg/injection, schedule: Q01DX009 (ip), vehicle: Klucel (hydroxypropylcellulose) (HPC).
[7] abbreviates: dose: 100.0 mg/kg/injection, schedule: Q01DX009 (ip), vehicle: Klucel (hydroxypropylcellulose) (HPC).
Setting [8] is: dose: 100.0 mg/kg/injection, schedule: Q04DX003 (ip), vehicle: Klucel (hydroxypropylcellulose) (HPC).
Setting [9] is: dose: 50.0 mg/kg/injection, schedule: Q01DX009 (ip), vehicle: saline with Tween-80.
[10] abbreviates: dose: 100.0 mg/kg/injection, schedule: Q01DX009 (ip), vehicle: saline with Tween-80.
Where [11] appears, read: dose: 200.0 mg/kg/injection, schedule: Q01DX009 (ip), vehicle: saline with Tween-80.
The mark [12] stands for this setting: dose: 100.0 mg/kg/injection, schedule: Q04DX003 (ip), vehicle: saline.
Setting [13] is: dose: 400.0 mg/kg/injection, schedule: Q01DX009 (ip), vehicle: saline with Tween-80.

Take `NC(N)=Nc1ccc(S(=O)(=O)O)cc1`: the T/C is, setting by setting: (dose: 12.5 mg/kg/injection, schedule: Q01DX009 (ip), vehicle: saline) 108 % of control; (dose: 25.0 mg/kg/injection, schedule: Q01DX009 (ip), vehicle: saline) 108 % of control; (dose: 50.0 mg/kg/injection, schedule: Q01DX009 (ip), vehicle: saline) 91 % of control; (dose: 100.0 mg/kg/injection, schedule: Q01DX009 (ip), vehicle: saline) 106 % of control.

With `O=C1CN=C(c2ccccn2)c2cc(Cl)ccc2N1CCO`, the T/C is, setting by setting: under setting [1], 105 % of control; under setting [2], 110 % of control; under setting [3], 115 % of control.

Turning to `CCCn1c(=S)[nH]c2ccccc2c1=O`, the T/C was 100 % of control (dose: 100.0 mg/kg/injection, schedule: Q01DX001 (ip), vehicle: Klucel (hydroxypropylcellulose) (HPC)); 100 % of control (dose: 200.0 mg/kg/injection, schedule: Q01DX001 (ip), vehicle: Klucel (hydroxypropylcellulose) (HPC)); 100 % of control (dose: 400.0 mg/kg/injection, schedule: Q01DX001 (ip), vehicle: Klucel (hydroxypropylcellulose) (HPC)).

With `CC(=N/O)/C(C)=N\O`, the T/C by setting is: (dose: 6.25 mg/kg/injection, schedule: Q01DX009 (ip), vehicle: Klucel (hydroxypropylcellulose) (HPC)) 110 % of control; under setting [4], 95 % of control; under setting [5], 95 % of control; under setting [6], 110 % of control and 120 % of control; (dose: 75.0 mg/kg/injection, schedule: Q01DX009 (ip), vehicle: Klucel (hydroxypropylcellulose) (HPC)) 100 % of control; under setting [7], 120 % of control. The T/C reads like this: under setting [8], 95 % of control; (dose: 100.0 mg/kg/injection, schedule: Q04DX003 (ip), vehicle: other) 100 % of control.

For the compound `Cn1c(O)c(N=NC(N)=S)c2ccccc21`, the T/C (dose: 10.0 mg/kg/injection, schedule: Q01DX009 (ip), vehicle: saline with Tween-80) is 102 % of control; the T/C (dose: 20.0 mg/kg/injection, schedule: Q01DX009 (ip), vehicle: saline with Tween-80) is 98 % of control; the T/C (dose: 40.0 mg/kg/injection, schedule: Q01DX009 (ip), vehicle: saline with Tween-80) was 115 % of control; the T/C under setting [9] is 90 % of control; the T/C (dose: 80.0 mg/kg/injection, schedule: Q01DX009 (ip), vehicle: saline with Tween-80) is 120 % of control; the T/C under setting [10] is 90 % of control. In addition, the T/C runs as follows: (dose: 160.0 mg/kg/injection, schedule: Q01DX009 (ip), vehicle: saline with Tween-80) 113 % of control; under setting [11], 90 % of control.

On to `Clc1ccc(-c2noc(CN3CCCCC3)n2)cc1`, for which the T/C runs as follows: under setting [9], 88 % of control; under setting [10], 88 % of control.

For the compound `NC(CSC(c1ccccc1)(c1ccccc1)c1ccccc1)C(=O)O` (centres undefined), the T/C by setting is: (dose: 3.0 mg/kg/injection, schedule: Q01DX009 (ip), vehicle: Klucel (hydroxypropylcellulose) (HPC)) 122 % of control; (dose: 4.8 mg/kg/injection, schedule: Q04DX003 (ip), vehicle: Klucel (hydroxypropylcellulose) (HPC)) 108 % of control; (dose: 7.2 mg/kg/injection, schedule: Q04DX003 (ip), vehicle: Klucel (hydroxypropylcellulose) (HPC)) 100 % of control; (dose: 10.0 mg/kg/injection, schedule: Q01DX009 (ip), vehicle: Klucel (hydroxypropylcellulose) (HPC)) 175 % of control; (dose: 14.4 mg/kg/injection, schedule: Q01DX009 (ip), vehicle: other) 150 % of control; (dose: 16.0 mg/kg/injection, schedule: Q01DX009 (ip), vehicle: Klucel (hydroxypropylcellulose) (HPC)) 177 % of control. In addition, the T/C is 115 % of control (dose: 24.0 mg/kg/injection, schedule: Q01DX009 (ip), vehicle: other); 200 % of control and 204 % of control under setting [4]; 231 % of control under setting [5]; 227 % of control (dose: 35.0 mg/kg/injection, schedule: Q01DX009 (ip), vehicle: Klucel (hydroxypropylcellulose) (HPC)); 123 % of control (dose: 40.0 mg/kg/injection, schedule: Q01DX009 (ip), vehicle: other); 86 % of control under setting [6]. The T/C was 186 % of control (dose: 50.0 mg/kg/injection, schedule: Q04DX003 (ip), vehicle: Klucel (hydroxypropylcellulose) (HPC)); 272 % of control (dose: 66.0 mg/kg/injection, schedule: Q04DX003 (ip), vehicle: saline); 240 % of control under setting [8]; 90 % of control under setting [12].

In the case of `COC(=O)C(CSCSC)NC(=O)Nc1ccc(F)cc1` (centres undefined), the T/C reads like this: under setting [10], 100 % of control; under setting [1], 100 % of control; under setting [11], 100 % of control; under setting [2], 95 % of control; under setting [13], 109 % of control; under setting [3], 90 % of control.

For `C(=N\Nc1nc2ccccc2s1)/c1ccc(/C=N/Nc2nc3ccccc3s2)cc1`, the T/C was 109 % of control under setting [7]; 104 % of control under setting [8]; 114 % of control (dose: 200.0 mg/kg/injection, schedule: Q01DX009 (ip), vehicle: Klucel (hydroxypropylcellulose) (HPC)); 100 % of control (dose: 200.0 mg/kg/injection, schedule: Q04DX003 (ip), vehicle: Klucel (hydroxypropylcellulose) (HPC)); 100 % of control (dose: 400.0 mg/kg/injection, schedule: Q01DX009 (ip), vehicle: Klucel (hydroxypropylcellulose) (HPC)); 104 % of control (dose: 400.0 mg/kg/injection, schedule: Q04DX003 (ip), vehicle: Klucel (hydroxypropylcellulose) (HPC)).

Take `Nc1ccc(/C=C2\C=Cc3ccccc32)cc1`: the T/C (dose: 17.75 mg/kg/injection, schedule: Q04DX003 (ip), vehicle: saline sonified) was 100 % of control; the T/C (dose: 18.75 mg/kg/injection, schedule: Q01DX009 (ip), vehicle: saline with Tween-80) is 90 % of control; the T/C (dose: 37.5 mg/kg/injection, schedule: Q01DX009 (ip), vehicle: saline with Tween-80) was 100 % of control; the T/C (dose: 37.5 mg/kg/injection, schedule: Q04DX003 (ip), vehicle: saline sonified) is 100 % of control; the T/C (dose: 75.0 mg/kg/injection, schedule: Q04DX003 (ip), vehicle: saline sonified) was 95 % of control.

As to `O=C(O)C1OC(n2cc(F)c(=O)[nH]c2=O)CC1O` (centres undefined), the T/C is 108 % of control (dose: 50.0 mg/kg/injection, schedule: Q04DX003 (ip), vehicle: saline); 116 % of control under setting [12]; 106 % of control (dose: 200.0 mg/kg/injection, schedule: Q04DX003 (ip), vehicle: saline); 108 % of control (dose: 300.0 mg/kg/injection, schedule: Q04DX003 (ip), vehicle: saline).

Regarding `[Cl][Cr]([Cl])[Cl].[NH-]CC[N-]CC[NH-]`, the T/C is, setting by setting: under setting [9], 116 % of control; under setting [10], 100 % of control; under setting [11], 100 % of control.

`C[S+](C)CCCNC(=O)c1csc(-c2csc(CCNC(=O)c3ccccc3)n2)n1`: the T/C is, setting by setting: (dose: 8.0 mg/kg/injection, schedule: Q01DX009 (ip), vehicle: saline) 90 % of control; (dose: 16.0 mg/kg/injection, schedule: Q01DX009 (ip), vehicle: saline) 100 % of control; (dose: 32.0 mg/kg/injection, schedule: Q01DX009 (ip), vehicle: saline) 95 % of control.

On to `CC(=O)OCC(=O)[C@@]1(O)CC[C@H]2[C@@H]3C[C@H](C)C4=CC(=O)CC[C@]4(C)[C@H]3[C@@H](O)C[C@@]21C`, for which, under setting [13], the T/C was 90 % of control.

For the compound `O=C1c2ccccc2CCCC12OC2c1ccccc1` (centres undefined), the T/C was 95 % of control (dose: 75.0 mg/kg/injection, schedule: Q04DX003 (ip), vehicle: Klucel (hydroxypropylcellulose) (HPC)); 104 % of control (dose: 150.0 mg/kg/injection, schedule: Q04DX003 (ip), vehicle: Klucel (hydroxypropylcellulose) (HPC)); 90 % of control (dose: 300.0 mg/kg/injection, schedule: Q04DX003 (ip), vehicle: Klucel (hydroxypropylcellulose) (HPC)).

Turning to `CCCCC/C(C=C(C#N)C#N)=C/c1ccccc1`, the T/C is 100 % of control (dose: 25.0 mg/kg/injection, schedule: Q01DX009 (ip), vehicle: saline with Tween-80) and 119 % of control under setting [10].

`COc1cc(Br)cc(C(=O)O)c1OC`: the T/C reads like this: (dose: 50.0 mg/kg/injection, schedule: Q01DX009 (ip), vehicle: distilled water + Tween-80) 96 % of control; (dose: 100.0 mg/kg/injection, schedule: Q01DX009 (ip), vehicle: distilled water + Tween-80) 88 % of control.
